Results published in the supplement of paper PMC10307832.

What follows are cell lines tested with CN1CCN(CC1)C2=CC(=C(C=C2)NC3=NC=C4C(=N3)N(C5=CC=CC=C5C(=O)N4C)C)OC [XMD8-85] + COc1cccc2cc(-c3nc([C@H]4CC[C@H](C(=O)O)CC4)n4ncnc(N)c34)[nH]c12 [OSI-027] (partner 0.5 µM) (assay: relative viability (nuclei count vs DMSO), 5 days (fraction); higher = more cells survive). Settings: first compound 0.08 µM.
Method in brief: (§1)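 Lung cancer cell lines were seeded in 1536-well plates and dosed by pin tool the next day, with either a single drug or a fixed anchor-drug dose combined with five library-drug doses (not always all listed) spaced in √10 steps. Five days later, one step fixed the cells and stained their nuclei (final 0.05% Triton X-100, 1% formaldehyde, 1 ug/ml Hoechst), and nuclei were counted on 4× images. Relative viability is the nuclei count in treated wells divided by the count in vehicle wells, and each value is the median of duplicate plates.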
For COR-L23, the relative viability was 0.592.
COR-L 105 was tested, and the relative viability was 0.6.
ChaGo-K-1 was tested, and the relative viability was 0.555.
EKVX gave a relative viability of 0.746.
EMC-BAC-2 gave a relative viability of 0.358.
EPLC-272H gave a relative viability of 0.282.
Cell Line H3255 has a relative viability of 0.599.
In the case of HARA, the relative viability is reported as 0.467.
With HCC-15 the relative viability was 0.615.
HCC-44 was tested, and the relative viability was 0.51.
Work on HCC-78 yielded a relative viability of 0.367.
HCC-366 gave a relative viability of 0.932.
Cell Line HCC-827 has a relative viability of 0.831.
HOP-62 showed a relative viability of 0.806.
Work on LC-2-ad yielded a relative viability of 0.745.
Work on LCLC-97TM1 yielded a relative viability of 0.485.
LCLC-103H showed a relative viability of 0.428.
In the case of LK-2, the relative viability is reported as 0.167.
Cell Line LOU-NH91 has a relative viability of 0.705.
Cell Line LU99A has a relative viability of 0.264.
With LXF-289 the relative viability was 0.758.
With NCI-H23 the relative viability was 0.589.
In the case of NCI-H322M, the relative viability is reported as 0.506.
For NCI-H358, the relative viability was 0.859.
NCI-H441 showed a relative viability of 0.522.
For NCI-H596, the relative viability was 0.69.
NCI-H1563 was tested, and the relative viability was 0.819.
Cell Line NCI-H1623 has a relative viability of 0.44.
Work on NCI-H1648 yielded a relative viability of 0.248.

Same assay, conditions: first compound 0.253 µM
Cell Line 201T has a relative viability of 0.824.
For A-427, the relative viability was 0.573.
Work on ABC-1 yielded a relative viability of 0.296.
Cell Line BEN has a relative viability of 0.344.
In the case of CAL-12T, the relative viability is reported as 0.735.
With ChaGo-K-1 the relative viability was 0.532.
EKVX showed a relative viability of 0.872.
For EMC-BAC-2, the relative viability was 0.385.
EPLC-272H was tested, and the relative viability was 0.251.
H3255 showed a relative viability of 0.597.
HARA showed a relative viability of 0.574.
HCC-15 showed a relative viability of 0.689.
HCC-44 showed a relative viability of 0.55.
HCC-78 gave a relative viability of 0.334.
Cell Line HCC-366 has a relative viability of 1.15.
In the case of HCC-827, the relative viability is reported as 0.789.
HOP-62 gave a relative viability of 0.867.
With LC-2-ad the relative viability was 0.859.
Work on LCLC-103H yielded a relative viability of 0.441.
For LK-2, the relative viability was 0.196.
LOU-NH91 was tested, and the relative viability was 0.735.
LU99A showed a relative viability of 0.31.
For LXF-289, the relative viability was 0.915.
NCI-H23 was tested, and the relative viability was 0.692.
NCI-H358 was tested, and the relative viability was 0.848.
In the case of NCI-H441, the relative viability is reported as 0.65.
NCI-H596 was tested, and the relative viability was 0.918.
In the case of NCI-H1623, the relative viability is reported as 0.395.
With NCI-H1648 the relative viability was 0.268.

Same assay, conditions: first compound 0.8 µM
For 201T, the relative viability was 0.398.
In the case of A-427, the relative viability is reported as 0.482.
ABC-1 was tested, and the relative viability was 0.546.
For BEN, the relative viability was 0.274.
CAL-12T gave a relative viability of 0.693.
Cell Line COR-L23 has a relative viability of 0.91.
Cell Line COR-L 105 has a relative viability of 0.589.
Cell Line ChaGo-K-1 has a relative viability of 0.599.
EKVX gave a relative viability of 0.661.
EMC-BAC-2 was tested, and the relative viability was 0.368.
EPLC-272H gave a relative viability of 0.266.
H3255 was tested, and the relative viability was 0.611.
Work on HARA yielded a relative viability of 0.523.
With HCC-15 the relative viability was 0.669.
For HCC-44, the relative viability was 0.46.
With HCC-78 the relative viability was 0.391.
HCC-366 showed a relative viability of 1.08.
Work on HCC-827 yielded a relative viability of 0.714.
For HOP-62, the relative viability was 0.842.
LC-2-ad was tested, and the relative viability was 0.794.
LCLC-97TM1 showed a relative viability of 0.623.
Work on LCLC-103H yielded a relative viability of 0.487.
Cell Line LK-2 has a relative viability of 0.185.
With LOU-NH91 the relative viability was 0.672.
LU99A showed a relative viability of 0.306.
With LXF-289 the relative viability was 0.852.
NCI-H23 gave a relative viability of 0.614.
For NCI-H322M, the relative viability was 0.571.
Work on NCI-H358 yielded a relative viability of 0.887.
For NCI-H441, the relative viability was 0.654.
In the case of NCI-H596, the relative viability is reported as 0.773.
Work on NCI-H1563 yielded a relative viability of 0.755.
In the case of NCI-H1623, the relative viability is reported as 0.349.

Same assay, conditions: first compound 2.53 µM
With 201T the relative viability was 0.367.
With A-427 the relative viability was 0.52.
ABC-1 gave a relative viability of 0.526.
BEN gave a relative viability of 0.264.
Cell Line CAL-12T has a relative viability of 0.409.
COR-L23 showed a relative viability of 0.733.
COR-L 105 gave a relative viability of 0.512.
For ChaGo-K-1, the relative viability was 0.605.
For EKVX, the relative viability was 0.73.
EMC-BAC-2 was tested, and the relative viability was 0.404.
EPLC-272H showed a relative viability of 0.305.
In the case of H3255, the relative viability is reported as 0.603.
With HARA the relative viability was 0.478.
In the case of HCC-44, the relative viability is reported as 0.456.
Cell Line HCC-78 has a relative viability of 0.35.
HCC-366 showed a relative viability of 0.917.
Cell Line HCC-827 has a relative viability of 0.939.
In the case of HOP-62, the relative viability is reported as 0.845.
In the case of LC-2-ad, the relative viability is reported as 0.779.
Work on LCLC-97TM1 yielded a relative viability of 0.565.
In the case of LK-2, the relative viability is reported as 0.192.
LOU-NH91 showed a relative viability of 0.827.
LU99A was tested, and the relative viability was 0.33.
For LXF-289, the relative viability was 0.936.
NCI-H23 showed a relative viability of 0.654.
NCI-H322M showed a relative viability of 0.504.
For NCI-H358, the relative viability was 0.92.
In the case of NCI-H441, the relative viability is reported as 0.699.
Cell Line NCI-H596 has a relative viability of 0.795.
For NCI-H1563, the relative viability was 0.715.
Work on NCI-H1623 yielded a relative viability of 0.413.

Same assay, conditions: first compound 8 µM
201T gave a relative viability of 0.493.
A-427 showed a relative viability of 0.337.
For ABC-1, the relative viability was 0.41.
Work on BEN yielded a relative viability of 0.307.
CAL-12T gave a relative viability of 0.235.
COR-L23 gave a relative viability of 0.597.
For COR-L 105, the relative viability was 0.324.
With ChaGo-K-1 the relative viability was 0.422.
EMC-BAC-2 gave a relative viability of 0.313.
EPLC-272H was tested, and the relative viability was 0.27.
H3255 was tested, and the relative viability was 0.469.
For HARA, the relative viability was 0.229.
In the case of HCC-15, the relative viability is reported as 0.541.
With HCC-44 the relative viability was 0.3.
HCC-78 gave a relative viability of 0.286.
In the case of HCC-366, the relative viability is reported as 0.794.
HCC-827 showed a relative viability of 1.
HOP-62 gave a relative viability of 0.436.
LC-2-ad showed a relative viability of 0.613.
Work on LCLC-97TM1 yielded a relative viability of 0.536.
LCLC-103H was tested, and the relative viability was 0.404.
Work on LK-2 yielded a relative viability of 0.162.
LU99A gave a relative viability of 0.258.
Work on LXF-289 yielded a relative viability of 0.579.
NCI-H23 was tested, and the relative viability was 0.409.
Cell Line NCI-H322M has a relative viability of 0.37.
Cell Line NCI-H358 has a relative viability of 0.756.
Work on NCI-H441 yielded a relative viability of 0.68.
In the case of NCI-H1563, the relative viability is reported as 0.789.
NCI-H1623 was tested, and the relative viability was 0.368.
In the case of NCI-H1648, the relative viability is reported as 0.228.

Each cell line was assayed with CN1CCN(CC1)C2=CC(=C(C=C2)NC3=NC=C4C(=N3)N(C5=CC=CC=C5C(=O)N4C)C)OC [XMD8-85] + N=C(N)NC(=N)NCCc1ccccc1 [Phenformin] (partner 250 µM) in the same assay as above. Settings: first compound 0.08 µM.
Method in brief: as §1
With 201T the relative viability was 0.437.
A549 was tested, and the relative viability was 0.0975.
Work on A-427 yielded a relative viability of 0.278.
In the case of ABC-1, the relative viability is reported as 0.221.
